Source: patent US11352359B2, “PI3K protein kinase inhibitors” (Rhizen Pharmaceuticals SA, priority 2013, dated 2022)
Where a name gives a salt, the structure may show the parent alone.

Legend:
[1] = biological target: PI3Kα (Homo sapiens, UniProt P42336); assay: Fluorescent determination of PI3Kinase enzyme activity (HTRF), PI3Kα; assay type: biochemical
Excerpt: (§1) Fluorescent Determination of PI3Kinase Enzyme Activity
(§2) Phosphoinositide 3 kinases (PI3K) belong to a class of Lipid kinases that play a critical role in the regulation of several key cellular processes. The PI3K are capable of phosphorylating the 3-hydroxy position of phosphoinositols thereby generating second messengers involved in downstream signalling events. The homogenous time resolved fluorescence (HTRF) assay allows detection of 3,4,5-triphosphate (PIP3) formed as a result of phosphorylation of phosphotidylinositol 4,5-biphosphate (PIP2) by PI3K isoforms such as α, […], γ or δ.
(§3) PI3K isoform activity for α, β, γ or δ is to be determined using a PI3K human HTRF™ Assay Kit (Millipore, Billerica, Mass.) with modifications. All incubations were carried out at room temperature. Briefly, 0.5 μl of 40× inhibitor (in 100% DMSO) or 100% DMSO were added to each well of a 384-well black plate (Greiner Bio-One, Monroe, N.C.) containing 14.5 μl 1× reaction buffer/PIP2 (10 mM MgCl2, 5 mM DTT, 1.38 μM PIP2) mix with or without enzyme and incubated for 10 min. After the initial incubation, 5 μl/well of 400 μM ATP was added and incubated for an additional 30 minutes. Reaction was terminated by adding 5 μl/well stop solution (Millipore, Billerica, Mass.). Five microliters of detection mix (Millipore, Billerica, Mass.) were then added to each well and was incubated for 6-18 h in the dark. HRTF ratio was measured on a microplate reader (BMG Labtech, Germany) at an excitation wavelength of 337 nm and emission wavelengths of 665 and 620 nm with an integration time of 400 μsec. Data was analyzed using Graphpad Prism (Graphpad software; San Diego Calif.) for IC50 determination).

[2] = biological target: PI3Kδ (Homo sapiens, UniProt O00329); assay: Fluorescent determination of PI3Kinase enzyme activity (HTRF), PI3Kδ; assay type: biochemical; conditions: for inhibition at 0.1 µM: 100 nM (underlined values: 300 nM)
Chain of PI3Kδ (O00329 whole entry): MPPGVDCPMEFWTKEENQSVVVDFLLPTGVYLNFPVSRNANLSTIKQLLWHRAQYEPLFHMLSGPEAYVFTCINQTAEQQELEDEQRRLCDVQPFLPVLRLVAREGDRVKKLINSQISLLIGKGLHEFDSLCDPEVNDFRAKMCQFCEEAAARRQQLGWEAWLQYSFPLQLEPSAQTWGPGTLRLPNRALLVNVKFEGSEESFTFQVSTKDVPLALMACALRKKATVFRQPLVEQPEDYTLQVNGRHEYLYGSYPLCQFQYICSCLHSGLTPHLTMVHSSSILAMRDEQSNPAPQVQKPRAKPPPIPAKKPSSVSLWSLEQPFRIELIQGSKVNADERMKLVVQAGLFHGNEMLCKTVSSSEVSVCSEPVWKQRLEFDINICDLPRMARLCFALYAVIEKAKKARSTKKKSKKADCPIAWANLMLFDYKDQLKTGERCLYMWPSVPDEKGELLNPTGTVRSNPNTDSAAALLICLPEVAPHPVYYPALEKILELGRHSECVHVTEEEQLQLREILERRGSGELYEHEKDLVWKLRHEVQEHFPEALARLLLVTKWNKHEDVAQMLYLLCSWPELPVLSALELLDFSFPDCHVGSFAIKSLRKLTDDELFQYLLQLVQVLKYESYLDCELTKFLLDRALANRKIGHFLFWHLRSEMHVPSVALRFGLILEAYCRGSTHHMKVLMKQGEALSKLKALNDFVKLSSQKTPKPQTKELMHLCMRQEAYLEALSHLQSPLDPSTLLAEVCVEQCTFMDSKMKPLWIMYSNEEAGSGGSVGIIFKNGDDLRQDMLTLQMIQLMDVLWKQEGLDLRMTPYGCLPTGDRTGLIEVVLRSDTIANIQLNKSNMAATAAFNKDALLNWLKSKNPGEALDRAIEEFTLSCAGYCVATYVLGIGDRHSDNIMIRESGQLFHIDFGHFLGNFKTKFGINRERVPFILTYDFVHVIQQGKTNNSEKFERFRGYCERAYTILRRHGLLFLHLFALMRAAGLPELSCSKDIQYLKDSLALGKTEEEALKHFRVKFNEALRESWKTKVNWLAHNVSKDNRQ
Chain of PI3Kδ (P27986 whole entry partner): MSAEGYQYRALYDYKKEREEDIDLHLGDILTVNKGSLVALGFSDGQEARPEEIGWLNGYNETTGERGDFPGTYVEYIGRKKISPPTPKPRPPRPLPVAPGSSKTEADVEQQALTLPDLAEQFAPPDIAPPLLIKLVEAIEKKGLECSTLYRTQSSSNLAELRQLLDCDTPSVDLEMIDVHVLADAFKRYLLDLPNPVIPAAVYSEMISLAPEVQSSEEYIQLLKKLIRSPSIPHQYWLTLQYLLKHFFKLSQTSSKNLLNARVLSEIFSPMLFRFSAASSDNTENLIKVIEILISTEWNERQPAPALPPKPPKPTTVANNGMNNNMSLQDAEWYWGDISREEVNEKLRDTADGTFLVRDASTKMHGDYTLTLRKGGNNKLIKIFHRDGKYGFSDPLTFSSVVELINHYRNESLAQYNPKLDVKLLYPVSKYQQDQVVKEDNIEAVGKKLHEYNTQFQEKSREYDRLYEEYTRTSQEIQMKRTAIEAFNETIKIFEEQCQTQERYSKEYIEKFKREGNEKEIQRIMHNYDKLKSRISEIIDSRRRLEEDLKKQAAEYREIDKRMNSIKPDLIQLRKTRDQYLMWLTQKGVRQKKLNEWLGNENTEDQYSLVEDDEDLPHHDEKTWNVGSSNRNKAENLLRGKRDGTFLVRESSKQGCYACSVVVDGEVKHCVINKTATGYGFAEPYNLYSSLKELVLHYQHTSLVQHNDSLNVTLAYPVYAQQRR
Excerpt: as §1, §2, §3

[3] = biological target: PI3Kβ (Homo sapiens, UniProt P42338); assay: Fluorescent determination of PI3Kinase enzyme activity (HTRF), PI3Kβ; assay type: biochemical
Chain of PI3Kβ (P42338 whole entry): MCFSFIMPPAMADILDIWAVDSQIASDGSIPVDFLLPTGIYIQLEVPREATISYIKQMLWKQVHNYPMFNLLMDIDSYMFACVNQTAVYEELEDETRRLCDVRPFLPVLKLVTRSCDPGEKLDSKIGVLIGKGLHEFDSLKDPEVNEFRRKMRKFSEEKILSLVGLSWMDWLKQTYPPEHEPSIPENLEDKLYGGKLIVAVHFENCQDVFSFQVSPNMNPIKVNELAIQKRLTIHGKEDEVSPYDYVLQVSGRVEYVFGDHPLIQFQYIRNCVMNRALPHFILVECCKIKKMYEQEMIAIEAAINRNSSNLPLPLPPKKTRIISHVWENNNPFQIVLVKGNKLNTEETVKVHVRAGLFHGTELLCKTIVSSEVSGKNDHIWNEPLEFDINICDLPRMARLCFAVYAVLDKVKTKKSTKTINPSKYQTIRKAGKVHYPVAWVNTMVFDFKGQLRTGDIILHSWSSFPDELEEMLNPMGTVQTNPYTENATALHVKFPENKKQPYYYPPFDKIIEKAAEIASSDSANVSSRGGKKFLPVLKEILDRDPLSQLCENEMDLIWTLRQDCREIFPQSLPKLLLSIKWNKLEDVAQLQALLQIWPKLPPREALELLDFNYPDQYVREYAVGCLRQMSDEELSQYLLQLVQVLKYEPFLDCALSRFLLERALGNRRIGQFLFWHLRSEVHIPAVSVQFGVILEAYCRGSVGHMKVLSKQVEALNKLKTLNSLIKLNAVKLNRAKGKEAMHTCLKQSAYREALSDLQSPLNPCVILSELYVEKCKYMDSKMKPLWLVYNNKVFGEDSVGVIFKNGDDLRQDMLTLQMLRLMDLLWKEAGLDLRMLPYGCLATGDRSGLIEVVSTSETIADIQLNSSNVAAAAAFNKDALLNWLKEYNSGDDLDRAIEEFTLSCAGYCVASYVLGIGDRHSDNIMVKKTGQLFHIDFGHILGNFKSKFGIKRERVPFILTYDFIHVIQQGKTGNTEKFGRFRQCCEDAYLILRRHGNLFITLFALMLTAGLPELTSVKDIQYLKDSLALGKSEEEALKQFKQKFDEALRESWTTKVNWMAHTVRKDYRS
Chain of PI3Kβ (P27986 whole entry partner): as the sequence (P27986 whole entry partner) above
Excerpt: as §1, §2, §3

[4] = biological target: PI3Kγ (Homo sapiens, UniProt P48736); assay: Fluorescent determination of PI3Kinase enzyme activity (HTRF), PI3Kγ; assay type: biochemical; conditions: for inhibition at 0.1 µM: 100 nM (underlined values: 300 nM)
Chain of PI3Kγ (P48736 whole entry): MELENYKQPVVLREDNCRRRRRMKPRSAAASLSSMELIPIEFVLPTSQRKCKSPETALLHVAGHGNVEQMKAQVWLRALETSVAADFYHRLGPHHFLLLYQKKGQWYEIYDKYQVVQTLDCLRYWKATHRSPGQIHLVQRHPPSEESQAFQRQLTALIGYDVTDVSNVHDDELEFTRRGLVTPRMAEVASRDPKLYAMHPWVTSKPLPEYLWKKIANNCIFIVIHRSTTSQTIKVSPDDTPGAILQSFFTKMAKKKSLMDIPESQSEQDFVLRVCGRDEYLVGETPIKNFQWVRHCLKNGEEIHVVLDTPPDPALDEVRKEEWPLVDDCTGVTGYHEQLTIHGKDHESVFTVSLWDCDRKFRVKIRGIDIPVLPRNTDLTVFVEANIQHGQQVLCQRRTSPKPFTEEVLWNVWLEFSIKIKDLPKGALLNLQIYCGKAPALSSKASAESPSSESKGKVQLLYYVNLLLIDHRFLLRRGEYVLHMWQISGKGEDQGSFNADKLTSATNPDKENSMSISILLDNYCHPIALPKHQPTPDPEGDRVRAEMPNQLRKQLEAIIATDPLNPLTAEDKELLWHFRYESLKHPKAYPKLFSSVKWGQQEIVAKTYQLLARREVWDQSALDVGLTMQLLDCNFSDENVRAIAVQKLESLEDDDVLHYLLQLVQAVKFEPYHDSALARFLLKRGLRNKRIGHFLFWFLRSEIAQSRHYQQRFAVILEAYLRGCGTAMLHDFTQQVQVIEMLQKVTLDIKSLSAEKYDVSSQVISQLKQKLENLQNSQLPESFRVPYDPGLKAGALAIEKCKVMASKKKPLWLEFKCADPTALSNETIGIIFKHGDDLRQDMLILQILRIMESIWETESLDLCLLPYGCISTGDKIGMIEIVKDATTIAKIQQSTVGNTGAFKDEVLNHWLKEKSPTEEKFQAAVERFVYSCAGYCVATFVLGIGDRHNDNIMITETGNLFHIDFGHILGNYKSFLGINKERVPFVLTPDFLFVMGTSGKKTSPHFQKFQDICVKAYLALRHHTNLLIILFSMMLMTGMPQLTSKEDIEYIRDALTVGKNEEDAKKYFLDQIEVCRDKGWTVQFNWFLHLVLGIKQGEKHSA
Excerpt: as §1, §2, §3

Chain of PI3Kα (P42336 whole entry): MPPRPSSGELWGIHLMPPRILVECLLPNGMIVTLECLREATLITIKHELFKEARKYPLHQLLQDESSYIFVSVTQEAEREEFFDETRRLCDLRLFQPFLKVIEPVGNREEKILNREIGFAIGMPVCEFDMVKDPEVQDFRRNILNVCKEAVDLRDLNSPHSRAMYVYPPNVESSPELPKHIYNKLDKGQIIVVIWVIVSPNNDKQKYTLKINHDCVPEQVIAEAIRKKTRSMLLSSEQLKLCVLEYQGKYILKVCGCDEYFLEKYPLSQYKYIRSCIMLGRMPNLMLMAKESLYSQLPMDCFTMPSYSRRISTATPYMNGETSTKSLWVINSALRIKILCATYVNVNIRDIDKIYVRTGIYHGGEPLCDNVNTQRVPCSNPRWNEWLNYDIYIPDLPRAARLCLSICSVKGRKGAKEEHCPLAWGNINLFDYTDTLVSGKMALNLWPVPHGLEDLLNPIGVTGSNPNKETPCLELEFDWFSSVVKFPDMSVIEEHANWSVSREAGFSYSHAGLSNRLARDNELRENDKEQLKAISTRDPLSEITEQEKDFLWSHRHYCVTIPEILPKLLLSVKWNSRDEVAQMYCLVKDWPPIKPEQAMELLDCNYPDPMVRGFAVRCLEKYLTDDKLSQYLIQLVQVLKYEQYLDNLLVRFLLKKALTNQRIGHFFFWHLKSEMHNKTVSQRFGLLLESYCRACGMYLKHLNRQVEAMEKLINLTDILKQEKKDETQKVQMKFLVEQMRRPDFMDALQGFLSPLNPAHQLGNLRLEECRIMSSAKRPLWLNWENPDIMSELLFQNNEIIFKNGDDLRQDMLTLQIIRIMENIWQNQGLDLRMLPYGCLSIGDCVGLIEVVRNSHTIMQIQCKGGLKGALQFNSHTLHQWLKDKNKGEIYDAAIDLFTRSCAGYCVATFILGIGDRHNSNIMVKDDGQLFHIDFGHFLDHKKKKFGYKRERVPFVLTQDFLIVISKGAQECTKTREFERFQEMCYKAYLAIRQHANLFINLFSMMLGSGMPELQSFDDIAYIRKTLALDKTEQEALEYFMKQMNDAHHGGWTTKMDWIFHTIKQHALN
Chain of PI3Kα (P27986 whole entry partner): as the sequence (P27986 whole entry partner) above

Row | Structure (SMILES) | inhibition at 1 µM [1] | inhibition at 0.1 µM [2] | inhibition at 1 µM [3] | melting point | inhibition at 0.1 µM [4] | IC50 [2] | IC50 [4]
1 | COc1ccc(-c2nn(C(C)c3cc4ccccc4c(=O)n3-c3ccccc3)c3ncnc(N)c23)cc1NS(C)(=O)=O (stereo not shown) [Example 9, N-(5-(4-amino-1-(1-(1-oxo-2-phenyl-1,2-dihydroisoquinolin-3-yl)ethyl)-1H-pyrazolo[3,4-d]pyrimidin-3-yl)-2-methoxyphenyl)methanesulfonamide] | 20 to 40% | 40 to 60% | 40 to 60% | 260 to 263 °C | 20 to 40% |  | 
2 | CC(c1nc2ccccc2c(=O)n1-c1ccccc1)n1nc(-c2ccc(O)c(F)c2)c2c(N)ncnc21 (stereo not shown) [Example 8, 2-(1-(4-amino-3-(3-fluoro-4-hydroxyphenyl)-1H-pyrazolo[3,4-d]pyrimidin-1-yl)ethyl)-3-phenylquinazolin-4(3H)-one] | 0 to 10% | 20 to 40% | 20 to 40% | 230 to 233 °C | 0 to 20% |  | 
3 | COc1ccc(-c2nn([C@H](C)c3cc4ccccc4c(=O)n3-c3ccccc3)c3ncnc(N)c23)cc1NS(C)(=O)=O [Example 9b, (−)—N-(5-(4-amino-1-(1-(1-oxo-2-phenyl-1,2-dihydroisoquinolin-3-yl)ethyl)-1H-pyrazolo[3,4-d]pyrimidin-3-yl)-2-methoxyphenyl)methanesulfonamide] | 0 to 10% | 40 to 60% | 10 to 20% | 158 to 162 °C | 0 to 20% |  | 
4 | CC(c1nc2ccc(F)cc2c(=O)n1-c1ccccc1)n1nc(-c2ccc(O)c(F)c2)c2c(N)ncnc21 (stereo not shown) [Example 13, 2-(1-(4-amino-3-(3-fluoro-4-hydroxyphenyl)-1H-pyrazolo[3,4-d]pyrimidin-1-yl)ethyl)-6-fluoro-3-phenylquinazolin-4(3H)-one] | 0 to 10% | 20 to 40% | 10 to 20% | 231 to 232 °C | 20 to 40% |  | 
5 | C[C@H](c1cc2ccccc2c(=O)n1-c1ccccc1)n1nc(-c2ccc(O)c(F)c2)c2c(N)ncnc21 [Example 7b, (−)-3-(1-(4-amino-3-(3-fluoro-4-hydroxyphenyl)-1H-pyrazolo[3,4-d]pyrimidin-1-yl)ethyl)-2-phenylisoquinolin-1(2H)-one] | 0 to 10% | 40 to 60% | 20 to 40% | 230 to 232 °C | 20 to 40% |  | 
6 | C[C@H](c1cc2cccc(Cl)c2c(=O)n1-c1ccccc1)n1nc(-c2ccc(O)c(F)c2)c2c(N)ncnc21 [Example 14b, (−)-3-(1-(4-amino-3-(3-fluoro-4-hydroxyphenyl)-1H-pyrazolo[3,4-d]pyrimidin-1-yl)ethyl)-8-chloro-2-phenylisoquinolin-1(2H)-one] | 0 to 10% | 60 to 80% | 20 to 40% | 215 to 219 °C | 20 to 40% |  | 
7 | C[C@H](c1nc2cccc(F)c2c(=O)n1-c1ccccc1)n1nc(-c2ccc(O)c(F)c2)c2c(N)ncnc21 [Example 16b, (−)-2-(1-(4-amino-3-(3-fluoro-4-hydroxyphenyl)-1H-pyrazolo[3,4-d]pyrimidin-1-yl)ethyl)-5-fluoro-3-phenylquinazolin-4(3H)-one] | 0 to 10% | 20 to 40% | 0 to 10% | 269 to 271 °C | 0 to 20% |  | 
8 | Cc1n[nH]c2cc(-c3nn([C@H](C)c4cc5cccc(Cl)c5c(=O)n4-c4ccccc4)c4ncnc(N)c34)ccc12 [Example 21b, (−)-3-(1-(4-amino-3-(3-methyl-1H-indazol-6-yl)-1H-pyrazolo[3,4-d]pyrimidin-1-yl)ethyl)-8-chloro-2-phenylisoquinolin-1(2H)-one] | 0 to 10% | 80 to 100% | 10 to 20% | 225 to 227 °C | 40 to 60% |  | 
9 | CC(C)Oc1ccc(-c2nn([C@H](C)c3cc4ccccc4c(=O)n3-c3ccccc3)c3ncnc(N)c23)cc1F [Example 5b, (−)-3-(1-(4-amino-3-(3-fluoro-4-isopropoxyphenyl)-1H-pyrazolo[3,4-d]pyrimidin-1-yl)ethyl)-2-phenylisoquinolin-1(2H)-one] | 0 to 10% | 40 to 60% | 60 to 80% | 232 to 235 °C | 0 to 20% |  | 
10 | CC(c1cc2cccc(Cl)c2c(=O)n1-c1ccccc1)n1nc(-c2ccc(OC(F)F)c(F)c2)c2c(N)ncnc21 (stereo not shown) (as salt: potassium) [Example 17, 3-(1-(4-amino-3-(4-(difluoromethoxy)-3-fluorophenyl)-1H-pyrazolo[3,4-d]pyrimidin-1-yl)ethyl)-8-chloro-2-phenylisoquinolin-1(2H)-one] |  |  |  | 160 to 162 °C |  |  | 

Now from value to molecule:

Row | inhibition at 1 µM [1] | inhibition at 0.1 µM [2] | inhibition at 1 µM [3] | melting point | inhibition at 0.1 µM [4] | IC50 [2] | IC50 [4] | Structure (SMILES)
11 |  |  |  | 215 to 218 °C |  |  |  | CC(C)Oc1ccc(-c2nn(C(C)c3nc4ccc(F)cc4c(=O)n3-c3ccccc3)c3ncnc(N)c23)cc1F (stereo not shown) (as salt: potassium) [Example 4, 2-(1-(4-amino-3-(3-fluoro-4-isopropoxyphenyl)-1H-pyrazolo[3,4-d]pyrimidin-1-yl)ethyl)-6-fluoro-3-phenylquinazolin-4(3H)-one]
12 | 20 to 40% | 60 to 80% | 60 to 80% | 218 to 219 °C | 80 to 100% |  |  | CC(c1cc2cccc(Cl)c2c(=O)n1-c1ccccc1)n1nc(-c2ccc(O)c(F)c2)c2c(N)ncnc21 (stereo not shown) [Example 14, 3-(1-(4-amino-3-(3-fluoro-4-hydroxyphenyl)-1H-pyrazolo[3,4-d]pyrimidin-1-yl)ethyl)-8-chloro-2-phenylisoquinolin-1(2H)-one]
13 |  |  |  | 261 to 263 °C |  |  |  | CCC(c1nc2ccccc2c(=O)n1-c1ccccc1)n1nc(-c2ccc(OC(C)C)c(F)c2)c2c(N)ncnc21 (stereo not shown) [Example 22, 2-{1-[4-Amino-3-(3-fluoro-4-isopropoxy-phenyl)-pyrazolo[3,4-d]pyrimidin-1-yl]-propyl}-3-phenyl-3H-quinazolin-4-one]
14 |  |  |  | 236 to 239 °C |  |  |  | CC(C)Oc1ccc(-c2nn(C(C)c3nc4ccccc4c(=O)n3-c3ccccc3)c3ncnc(N)c23)cc1F (stereo not shown) (as salt: potassium) [Example 6, 2-(1-(4-amino-3-(3-fluoro-4-isopropoxyphenyl)-1H-pyrazolo[3,4-d]pyrimidin-1-yl)ethyl)-3-phenylquinazolin-4(3H)-one]
15 | 0 to 10% | 60 to 80% | 20 to 40% |  | 60 to 80% | 13.3 nM | 57.7 nM | C[C@@H](c1cc2ccccc2c(=O)n1-c1ccccc1)n1nc(-c2ccc(O)c(F)c2)c2c(N)ncnc21 [Example 7a, (+)-3-(1-(4-amino-3-(3-fluoro-4-hydroxyphenyl)-1H-pyrazolo[3,4-d]pyrimidin-1-yl)ethyl)-2-phenylisoquinolin-1(2H)-one]
16 |  |  |  | 264 to 266 °C |  |  |  | CC(C)Oc1ccc(-c2nn(C(C)c3cc4cccc(F)c4c(=O)n3-c3ccccc3)c3ncnc(N)c23)cc1F (stereo not shown) (as salt: potassium) [Example 2, 3-(1-(4-amino-3-(3-fluoro-4-isopropoxyphenyl)-1H-pyrazolo[3,4-d]pyrimidin-1-yl)ethyl)-8-fluoro-2-phenylisoquinolin-1(2H)-one]
